# From patent publication US7537906B2, “Apoptosis inducer and method of screening for a substance inhibiting acylated homoserine lactone” (priority 2003, dated 2009)
# What was measured:
# [1] = tested on: Akt; test: Akt activity by Western blot in porcine vascular endothelial cells (PECs); format: cell-based; conditions: 100 μM, 10 minutes
# Description: Porcine vascular endothelial cells (PECs) were cultured at 37° C. in the presence of 5% CO2 using a DMEM medium containing 10% FCS, 1% NEAA and 1% P/S (100 units/ml penicillin and 100 μg/ml streptomycin).
# 6×10^5 PECs were inoculated per dish using 6 cm dishes (NUNC), washed twice with phosphate buffered saline (PBS) (-), and then cultured for 24 hours in a serum-free DMEM medium containing 1% NEAA. Subsequently, at a final concentration of 100 μM, homoserine lactone hydrochloride, N-butyryl-L-homoserine lactone, N-(3-oxohexanoyl)-L-homoserine lactone and N-(3-oxododecanoyl)-L-homoserine lactone were each added, and then each solution was allowed to react for 10 minutes. Similarly to (1), the effect of acylated homoserine lactone on Akt activity in PECs were examined by Western blotting.
# [2] = tested on: p38; test: MAP kinase activity by Western blot in CaCo-2 cells: phosphorylated p38; format: cell-based, human
# Description: A CaCo-2 carcinoma cell line of human colon cancer was purchased from American Type Culture Collection (ATCC), and cultured at 37° C. in the presence of 5% CO2 using a DMEM medium containing 10% FCS, 1% NEAA and 1% P/S (100 units/ml penicillin and 100 μg/ml streptomycin).
# 6×10^5 CaCo-2 cells were inoculated per dish using 6 cm dishes (NUNC), washed twice with phosphate buffered saline (PBS) (-), and then cultured in a serum-free DMEM medium containing 1% NEAA for 24 hours. Subsequently, at a final concentration of 100 μM, homoserine lactone hydrochloride and N-(3-oxododecanoyl)-L-homoserine lactone were each added, and then each solution was allowed to react for 10 minutes. Furthermore, purified acylated homoserine lactone used herein had been dissolved in DMSO in a concentration 400 times higher than the target final concentration, and then subjected to filter sterilization (φ 0.22 μm). As a control, DMSO with a final concentration of 0.25% was used. In addition, α-tubulin was used as an internal standard.
# After reaction, the product was washed twice with cold PBS (-), and then frozen at −80° C. The cells were thawed on ice. 200 μl of a lysis buffer (50 mM HEPES, pH 7.5, 50 mM NaCl, 1 mM EDTA, 1.5 mM MgCl2, 1% Triton X-100, 10% glycerin, 10 mM sodium pyrophosphate, 1 mM Na3VO4, 100 mM NaF, 1 mM PMSF, 10 μg/ml aprotinin and 10 μg/ml leupeptin) was added to the cells, and then the cells were scraped off using a scraper. The cells were allowed to stand on ice for 20 minutes, and then centrifuged at 14000 rpm at 4° C. for 15 minutes, thereby collecting the supernatant. Concentration of the collected protein was measured, and then the protein equivalent to 50 μg was subjected to SDS-PAGE. After electrophoresis, the product was blotted on a PVDF membrane. When phosphorylated ERK, JNK, p38 and Akt were measured, blocking was carried out with 0.1% Tween 20 (TBS-T) containing 5% skim milk/Tris-buffered saline. As primary antibodies, an anti-phospho-p44/42 MAP kinase antibody, an anti-phospho-SAPK/JNK antibody, an anti-phospho-p38 MAP kinase antibody, and an anti-phospho-Akt ([…]) antibody were each used. As a secondary antibody, an HRP-labeled anti-rabbit IgG antibody was used. For the α-tubulin used as an internal standard, blocking was carried out with 5% bovine serum albumin (BSA)/TBS-T, and an anti-α-tubulin (Ab-1) antibody and an HRP-labeled anti-mouse IgG antibody were used as a primary antibody and a secondary antibody, respectively. For band detection, Renaissance™ Western Blot Chemiluminescence […] Reagent Plus (NEN) or Western Blotting Luminol Reagent (SANTA CRUZ BIOTECHNOLOGY) was used.
# After cell culture, MAP kinase activity and Akt activity were analyzed by Western blot in a manner similar to that used in (1), except that N-(3-oxododecanoyl)-L-homoserine lactones in final concentrations of 0 μM (0.25% DMSO), 1 μM, 10 μM, 30 μM and 100 μM were each added and each solution was allowed to react for 10 minutes (FIG. 8).
# After cell culture, N-(3-oxododecanoyl)-L-homoserine lactone with final concentrations of 30 μM and 100 μM were added. For each case, MAP kinase activity and Akt activity were measured by Western blot in a manner similar to that in (1), except for carrying out stimulation with acylated homoserine lactone in a short time course of 0, 5, 10, 30 and 60 minutes (FIG. 11), and in a long time course of 0, 10 minutes, 60 minutes, 2 hours, 4 hours, 6 hours, 8 hours and 10 hours (FIG. 12). In the case of stimulation at 30 μM, both ERK and p38 activities increased with a peak at 10 minutes. However, while ERK activity returned to the base level within 30 minutes, p38 activity lasted until 4 hours after stimulation. The inhibition of Akt activity in the case of stimulation at 30 μM peaked at 5 minutes and lasted until 60 minutes after stimulation, and returned to the base level within 2 hours. ERK activation took place with two steps in the case of stimulation at 100 μM. […]
smiles,measurement,setting,value
CCCCCCCCCC(=O)CC(=O)N[C@H]1CCOC1=O [N-(3-oxododecanoyl)-L-homoserine lactone],Akt activity in PECs,[1],significantly decreases
same,p38 activity increase,"[2]; 10 μM, 10 minutes",3.2 times
same,p38 activity increase,"[2]; 30 μM, 10 minutes",4.4 times
same,activation of p38,"[2]; 100 μM, 10 minutes",promoted
same,p38 activity increase,"[2]; 100 μM, 10 minutes",5.4 times
same,concentration at which levels of phosphorylated p38 significantly increased,[2]; 10 minutes,≥ 10 µM
same,p38 activity lasted until (after stimulation),[2]; stimulation at 30 μM,4 h
same,time of peak p38 activity,[2]; stimulation at 30 μM,10 min
same,p38 activity lasted until (after stimulation),[2]; stimulation at 100 μM,8 h
same,time of peak p38 activation,[2]; stimulation at 100 μM,5 min
